From patent US20080176862A1, “New Compounds 617” (ASTRAZENECA AB, priority 2006, published 2008) come the findings set out here.

The experiment addresses T1, human β-Secretase (soluble part, AA1-AA460; sBACE-Fc) (Homo sapiens, UniProt P56817).
T1 construct: The soluble part of the human β-Secretase (AA1-AA460) was cloned into the ASP2-Fc10-1-IRES-GFP-neoK mammalian expression vector; made in house
Put plainly: TR-FRET assay. The experiment is classed as biochemical. The note with it: substrate (Europium)CEVNLDAEFK(Qsy7) 100 nM, pH 4.5, 15 min at RT; for IC50: read-out: IC50 (nM) in TR-FRET assay. The protocol:
The enzyme used in the IGEN Cleavage-, Fluorescent-, TR-FRET- and BiaCore assays is described as follows:
The soluble part of the human β-Secretase (AA1-AA460) was cloned into the ASP2-Fc10-1-IRES-GFP-neoK mammalian expression vector. The gene was fused to the Fc domain of IgG1 (affinity tag) and stably cloned into HEK 293 cells. Purified sBACE-Fc is stored in Tris buffer, pH 9.2 and has a purity of 95%.
Enzyme was diluted to 6 μg/mL and the substrate (Europium)[…](Qsy7) to 200 nM in reaction buffer (NaAcetate, chaps, triton x-100, EDTA pH 4.5). Compounds were diluted to the desired concentration in dimethyl sulfoxide (final dimethyl sulfoxide concentration in assay is 5%). […] Enzyme (9 μL) and 1 μL of compound in dimethyl sulfoxide was added to the plate, mixed and pre-incubated for 10 min. Substrate (10 μL) was added and the reaction proceeded in the dark for 15 min at RT. The reaction was stopped with the addition of 7 μL NaAcetate, pH 9. The fluorescence of the product was measured on a Victor II plate reader with an excitation wavelength of 340 nm and an emission wavelength of 615 nm. […] The dimethyl sulfoxide control defined the 100% activity level and 0% activity was defined by exclusion of the enzyme (using reaction buffer instead).
On the technique in general: TR-FRET usually uses a lanthanide donor and a delayed reading to cut background.

Counter-ions that a name gives are not always drawn.

T1 sequence (P56817 22-460): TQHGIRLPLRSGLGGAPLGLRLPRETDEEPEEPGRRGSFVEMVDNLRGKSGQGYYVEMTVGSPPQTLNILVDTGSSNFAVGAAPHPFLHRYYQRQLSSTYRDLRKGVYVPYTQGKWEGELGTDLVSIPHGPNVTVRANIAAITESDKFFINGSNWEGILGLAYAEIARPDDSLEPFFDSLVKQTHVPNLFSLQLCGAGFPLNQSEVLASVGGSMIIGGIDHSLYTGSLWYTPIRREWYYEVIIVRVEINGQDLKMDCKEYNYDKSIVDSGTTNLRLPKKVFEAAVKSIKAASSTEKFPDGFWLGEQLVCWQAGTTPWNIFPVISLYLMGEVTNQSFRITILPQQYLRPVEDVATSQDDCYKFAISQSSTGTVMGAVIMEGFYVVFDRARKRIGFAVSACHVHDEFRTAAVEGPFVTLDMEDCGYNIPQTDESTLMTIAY

The term IC50 denotes the point on the concentration scale where inhibition reaches its midpoint. Consider `COc1ccnc(-c2cc(C3(c4ccc(OS(C)(=O)=O)cc4)N=C(N)N(C)C3=O)ccc2F)n1` (centres unmarked) [Example 6, 4-{2-Amino-4-[4-fluoro-3-(4-methoxypyrimidin-2-yl)phenyl]-1-methyl-5-oxo-4,5-dihydro-1H-imidazol-4-yl}phenyl methanesulfonate 0.25 acetate], for which the IC50 stood at 834 nM. For `COc1ccnc(-c2cc(C3(c4cccc(OS(C)(=O)=O)c4)N=C(N)N(C)C3=O)ccc2F)n1` (centres unmarked) [Example 7, 3-{2-Amino-4-[4-fluoro-3-(4-methoxypyrimidin-2-yl)phenyl]-1-methyl-5-oxo-4,5-dihydro-1H-imidazol-4-yl}phenyl methanesulfonate 0.5 acetate], the IC50 turned out to be 1200 nM. For the compound `COc1ccc(C2(c3ccc(F)c(-c4cncnc4)c3)N=C(N)N(C)C2=O)cc1OS(=O)(=O)C(F)(F)F` (centres unmarked) [Example 14, 5-[2-Amino-4-(4-fluoro-3-pyrimidin-5-ylphenyl)-1-methyl-5-oxo-4,5-dihydro-[H-imidazol-4-yl]-2-methoxyphenyl trifluoromethanesulfonate 0.5 acetate], the 50% inhibitory concentration (IC50) amounted to 59 nM. Take `COc1ccc(F)c(-c2cncc(C3(c4ccc(OS(C)(=O)=O)cc4)N=C(N)N(C)C3=O)c2)c1` (centres unmarked) [Example 21, 4-{2-Amino-4-[5-(2-fluoro-5-methoxyphenyl)pyridin-3-yl]-1-methyl-5-oxo-4,5-dihydro-1H-imidazol-4-yl}phenyl methanesulfonate 0.5 acetate]: the half-maximal inhibitory concentration (IC50) stood at 1910 nM. For the compound `CN1C(=O)C(c2ccc(OS(C)(=O)=O)cc2)(c2cncc(-c3cccnc3F)c2)N=C1N` (centres unmarked) [Example 22, 4-[2-amino-4-(2′-fluoro-3,3′-bipyridin-5-yl)-1-methyl-5-oxo-4,5-dihydro-1H-imidazol-4-yl]phenyl methanesulfonate 0.5 acetate], the half-inhibitory concentration (IC50) stood at 1650 nM. Same read-out and setting: with `CN1C(=O)C(c2ccc(OS(C)(=O)=O)cc2)(c2ccnc(-c3cccnc3F)c2)N=C1N` (centres unmarked) [Example 29, 4-[2-Amino-4-(2′-fluoro-2,3′-bipyridin-4-yl)-1-methyl-5-oxo-4,5-dihydro-1H-imidazol-4-yl]phenyl methanesulfonate 0.25 acetate] the figure was 387 nM.

Take `CN1C(=O)C(c2ccc(OS(C)(=O)=O)cc2)(c2ccnc(-c3cccc(C#N)c3)c2)N=C1N` (centres unmarked) [Example 34, 4-{2-Amino-4-[2-(3-cyanophenyl)pyridin-4-yl]-1-methyl-5-oxo-4,5-dihydro-1H-imidazol-4-yl}phenyl methanesulfonate 0.25 acetate]: the half-maximal inhibitory concentration (IC50) was 924 nM. `COc1cccc(-c2cc(C3(c4ccc(OS(C)(=O)=O)cc4)N=C(N)N(C)C3=O)ccn2)c1` (centres unmarked) [Example 39, 4-{2-Amino-4-[2-(3-methoxyphenyl)pyridin-4-yl]-1-methyl-5-oxo-4,5-dihydro-1H-imidazol-4-yl}phenyl methanesulfonate 0.25 acetate]: the IC50 was found to be 365 nM. With `COc1ccc(C2(c3cccc(-c4cc(OC)cc(OS(C)(=O)=O)c4)c3)N=C(N)N(C)C2=O)cc1` (centres unmarked) [Example 57, 3′-[2-Amino-4-(4-methoxyphenyl)-1-methyl-5-oxo-4,5-dihydro-1H-imidazol-4-yl]-5-methoxybiphenyl-3-yl methanesulfonate], the IC50 was determined as 34 nM.

On to `COc1cc(OS(C)(=O)=O)cc(-c2cccc(C3(c4ccc(OC(F)(F)F)cc4)N=C(N)N(C)C3=O)c2)c1` (centres unmarked) [Example 58, 3′-{2-Amino-1-methyl-5-oxo-4-[4-(trifluoromethoxy)phenyl]-4,5-dihydro-1H-imidazol-4-yl}-5-methoxybiphenyl-3-ylmethanesulfonate], for which the IC50 amounted to 81 nM. For `CN1C(=O)C(c2ccc(OC(F)(F)F)cc2)(c2cccc(-c3cc(Cl)cc(OS(C)(=O)=O)c3)c2)N=C1N` (centres unmarked) [Example 59, 3′-{2-Amino-1-methyl-5-oxo-4-[4-(trifluoromethoxy)phenyl]-4,5-dihydro-1H-imidazol-4-yl}-5-chlorobiphenyl-3-ylmethanesulfonate], the 50% inhibitory concentration (IC50) was found to be 128 nM. Same read-out and setting: as for `COc1cc(OS(C)(=O)=O)cc(-c2cccc(C3(c4ccc(OC)c(C(F)(F)F)c4)N=C(N)N(C)C3=O)c2)c1` (centres unmarked) [Example 60, 3′-{2-Amino-4-[4-methoxy-3-(trifluoromethyl)phenyl]-1-methyl-5-oxo-4,5-dihydro-1H-imidazol-4-yl}-5-methoxybiphenyl-3-yl methanesulfonate], the figure is 25 nM. As for `COc1ccc(C2(c3cccc(-c4cc(Cl)cc(OS(C)(=O)=O)c4)c3)N=C(N)N(C)C2=O)cc1C(F)(F)F` (centres unmarked) [Example 61, 3′-{2-Amino-4-[4-methoxy-3-(trifluoromethyl)phenyl]-1-methyl-5-oxo-4,5-dihydro-1H-imidazol-4-yl}-5-chlorobiphenyl-3-ylmethanesulfonate], the IC50 came to 37 nM.

For the compound `COc1cc(OS(C)(=O)=O)cc(-c2cccc(C3(c4ccc(OC)c(C)c4)N=C(N)N(C)C3=O)c2)c1` (centres unmarked) [Example 62, 3′-[2-Amino-4-(4-methoxy-3-methylphenyl)-1-methyl-5-oxo-4,5-dihydro-1H-imidazol-4-yl]-5-methoxybiphenyl-3-ylmethanesulfonate 0.25acetate], the IC50 is 25 nM. On to `COc1cc(OS(C)(=O)=O)cc(-c2cccc(C3(c4ccc(OC(F)F)cc4)N=C(N)N(C)C3=O)c2)c1` (centres unmarked) [Example 63, 3′-{2-Amino-4-[4-(difluoromethoxy)phenyl]-1-methyl-5-oxo-4,5-dihydro-1H-imidazol-4-yl}-5-methoxybiphenyl-3-yl methanesulfonate 0.25acetate], for which the 50% inhibitory concentration (IC50) is 18 nM. The same measure, in the same setting: as for `CN1C(=O)C(c2ccc(OC(F)F)cc2)(c2cccc(-c3cc(Cl)cc(OS(C)(=O)=O)c3)c2)N=C1N` (centres unmarked) [Example 64, 3′-{2-Amino-4-[4-(difluoromethoxy)phenyl]-1-methyl-5-oxo-4,5-dihydro-1H-imidazol-4-yl}-5-chlorobiphenyl-3-ylmethanesulfonate], the figure is 28 nM. Take `COc1cc(OS(C)(=O)=O)cc(-c2cc(C3(c4ccc(OC(F)F)cc4)N=C(N)N(C)C3=O)ccc2F)c1` (centres unmarked) [Example 69, 5′-{2-Amino-4-[4-(difluoromethoxy)phenyl]-1-methyl-5-oxo-4,5-dihydro-1H-imidazol-4-yl}-2′-fluoro-5-methoxybiphenyl-3-yl methanesulfonate hydrochloride]: the IC50 was determined as 23 nM.

As for `CN1C(=O)C(c2ccc(OC(F)F)cc2)(c2ccc(F)c(-c3cc(C#N)cc(OS(C)(=O)=O)c3)c2)N=C1N` (centres unmarked) [Example 70, 5′-{2-Amino-4-[4-(difluoromethoxy)phenyl]-1-methyl-5-oxo-4,5-dihydro-1H-imidazol-4-yl}-5-cyano-2′-fluorobiphenyl-3-yl methanesulfonate hydrochloride], the 50% inhibitory concentration (IC50) came out at 2420 nM. On the same count and under the same terms, as for `COc1cc(C#N)cc(-c2cc(C3(c4ccc(OS(C)(=O)=O)cc4)N=C(N)N(C)C3=O)ccc2F)c1` (centres unmarked) [Example 71, 4-[2-Amino-4-(3′-cyano-6-fluoro-5′-methoxybiphenyl-3-yl)-1-methyl-5-oxo-4,5-dihydro-1H-imidazol-4-yl]phenyl methanesulfonate hydrochloride], the figure is 41 nM; as for `CN1C(=O)C(c2ccc(OC(F)F)cc2)(c2ccc(F)c(-c3cncc(OS(C)(=O)=O)c3)c2)N=C1N` (centres unmarked) [Example 73, 5-(5-{2-Amino-4-[4-(difluoromethoxy)phenyl]-1-methyl-5-oxo-4,5-dihydro-1H-imidazol-4-yl}-2-fluorophenyl)pyridin-3-yl methanesulfonate hydrochloride], 54 nM; as for `CN1C(=O)C(c2ccc(OS(C)(=O)=O)cc2)(c2ccc(F)c(/C=C/C3CC3)c2)N=C1N` (centres unmarked) [Example 78, 4-(2-Amino-4-{3-[(E)-2-cyclopropylvinyl]-4-fluorophenyl}-1-methyl-5-oxo-4,5-dihydro-1H-imidazol-4-yl)phenyl methanesulfonate], 725 nM. The same measure, in the same setting: with `CN1C(=O)C(c2ccc(OS(C)(=O)=O)cc2)(c2ccc(F)c(CCC3CC3)c2)N=C1N` (centres unmarked) [Example 79, 4-{2-Amino-4-[3-(2-cyclopropylethyl)-4-fluorophenyl]-1-methyl-5-oxo-4,5-dihydro-1H-imidazol-4-yl}phenyl methanesulfonate] the figure was 552 nM. Regarding `COc1cc(OS(C)(=O)=O)cc(-c2cc(C3(c4ccccc4)N=C(N)N(C)C3=O)ccc2F)c1` (centres unmarked) [Example 84, 5′-(2-Amino-1-methyl-5-oxo-4-phenyl-4,5-dihydro-1H-imidazol-4-yl)-2′-fluoro-5-methoxybiphenyl-3-yl methanesulfonate], the “IC50 (nM) in TR-FRET assay” value is “inactive” and the IC50 stood at 159 nM. As to `CN1C(=O)C(c2cccc(OS(C)(=O)=O)c2)(c2ccc(F)c(-c3cc(Cl)cnc3F)c2)N=C1N` (centres unmarked) [Example 86, 3-{2-Amino-4-[3-(5-chloro-2-fluoropyridin-3-yl)-4-fluorophenyl]-1-methyl-5-oxo-4,5-dihydro-1H-imidazol-4-yl}phenyl methanesulfonate], the IC50 worked out at 292 nM.

As to `CN1C(=O)C(c2cccc(OS(C)(=O)=O)c2)(c2ccc(F)c(-c3cncc(F)c3)c2)N=C1N` (centres unmarked) [Example 87, 3-{2-Amino-4-[4-fluoro-3-(5-fluoropyridin-3-yl)phenyl]-1-methyl-5-oxo-4,5-dihydro-1H-imidazol-4-yl}phenylmethanesulfonate], the half-inhibitory concentration (IC50) worked out at 494 nM.
